Results from ChEMBL document CHEMBL5576057, “Discovery of DS44470011: An oral hypoxia-inducible factor prolyl hydroxylase inhibitor for the treatment of renal anemia” (Bioorg Med Chem Lett, 2024).
pEC50, pIC50: −log10 of the molar value. The source made the active and inactive calls. No cut-off for these calls is given here.

Tests used:
Hep 3B2 = assay: […] activity against human Hep3B cells assessed as increase of erythropoietin release by measuring effective concentration; type: functional, cell-based
Egl nine homolog 1 = Egl nine homolog 1 (Homo sapiens, UniProt Q9GZT9)
Chain of Egl nine homolog 1 (Q9GZT9 whole entry): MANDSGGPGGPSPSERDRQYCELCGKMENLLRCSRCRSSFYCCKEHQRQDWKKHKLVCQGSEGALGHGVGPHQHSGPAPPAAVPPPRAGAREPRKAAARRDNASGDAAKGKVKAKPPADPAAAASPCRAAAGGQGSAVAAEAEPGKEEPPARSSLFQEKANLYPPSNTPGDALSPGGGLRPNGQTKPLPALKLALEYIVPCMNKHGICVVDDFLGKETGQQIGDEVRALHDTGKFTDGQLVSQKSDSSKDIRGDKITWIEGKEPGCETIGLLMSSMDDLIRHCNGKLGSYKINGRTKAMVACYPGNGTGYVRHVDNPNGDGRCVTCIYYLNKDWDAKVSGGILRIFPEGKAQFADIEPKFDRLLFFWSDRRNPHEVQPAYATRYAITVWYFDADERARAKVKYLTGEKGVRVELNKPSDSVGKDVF

[1] = Volume of distribution at steady state in Cynomolgous monkey at 1 mg/kg,iv; type: ADME, organism-based, Macaca fascicularis; details: cynomolgus monkey, in vivo, read-out: Vdss
[2] = Metabolic stability in Cynomolgous monkey assessed as compound remaining; type: ADME, Macaca fascicularis; details: cynomolgus monkey
Cynomolgus monkey [3] = assay: animal or person; details: Macaca fascicularis, in Primates, po, 24 h
Cynomolgus monkey [4] = assay: […] activity against Cynomolgous monkey assessed as increase of erythropoietin level in plasma at po administration measured after 12 hrs; type: functional, organism-based; details: Macaca fascicularis
[5] = Cmax in Cynomolgous monkey at 3 mg/kg,po; type: ADME, organism-based, Macaca fascicularis; details: cynomolgus monkey, in vivo
[6] = Lipophilicity, logD of the compound; type: physicochemical; details: octanol/water
[7] = Protein binding in Cynomolgous monkey assessed as assessed as unbound fraction; type: ADME, Macaca fascicularis; details: cynomolgus monkey
[8] = AUC in Cynomolgous monkey at 3 mg/kg,po; type: ADME, organism-based, Macaca fascicularis; details: cynomolgus monkey, in vivo
[9] = Half life in Cynomolgous monkey at 1 mg/kg,iv; type: ADME, organism-based, Macaca fascicularis; details: cynomolgus monkey, in vivo

| Structure (SMILES) | pEC50 (Hep 3B2) | pIC50 (Egl nine homolog 1) | other results |
| --- | --- | --- | --- |
| Cc1nc(Cc2ccc(C(C)(C)C)cc2)nc(C(=O)NCC(=O)O)c1O | 4.60 | 5.41 | – |
| Cc1nc(Cc2ccc(-c3ccccc3)cc2)nc(C(=O)N[C@@H](C)C(=O)O)c1O | 4.85 | 5.00 | – |
| Cc1nc(Cc2ccccc2-c2ccccc2)nc(C(=O)NCC(=O)O)c1O | – | 4.77 | – |
| Cc1nc(C(=O)NCC(=O)O)c(O)c(-c2ccc(F)cc2)n1 | 3.97 | 4.41 | – |
| Cc1nc(Cc2ccc(-c3ccccc3)cc2)nc(C(=O)NCC(=O)O)c1C(=O)O | – | < 4.00 | – |
| Cc1nc(C)c(O)c(C(=O)NCC(=O)O)n1 | – | 4.96 | – |
| O=C(O)CNC(=O)c1nc(Cc2ccc(-c3ccccc3)cc2)nc(C(F)F)c1O | 3.98 | 5.39 | – |
| Cc1nc(Cc2ccc(-c3ccccc3)cc2)nc(C(=O)NCC(=O)O)c1O | 5.08 | 5.82 | Vd [1]: 0.06 L/kg; Stability [2]: 90%; ED10 (Cynomolgus monkey [3]): 2.2 mg/kg; Activity (Cynomolgus monkey [4]): Active; Cmax [5]: 28000 ng/mL; logD [6]: 0.8; Fu [7]: 0.6%; AUC [8]: 380 µg·h/mL; half-life [9]: 780 min |
| Cc1nc(Cc2ccc(-c3ccccc3)cc2)nc(C(=O)NCC(=O)O)c1S | 4.17 | 4.89 | – |
| Cc1nc(Cc2ccc(Cl)cc2)nc(C(=O)NCC(=O)O)c1O | – | 4.77 | – |
| Cc1nc(Cc2ccc(F)cc2)c(O)c(C(=O)NCC(=O)O)n1 | 4.29 | 4.96 | – |
| Cc1nc(Cc2ccc(-c3ccccc3)cc2)c(O)c(C(=O)NCC(=O)O)n1 | 4.57 | 5.00 | – |
| Cc1nc(Cc2ccc(-c3ccccc3)cc2)nc(C(=O)N[C@H](C)C(=O)O)c1O | – | < 4.00 | – |
| O=C(O)CNC(=O)c1nc(Cc2ccc(-c3ccccc3)cc2)ncc1O | – | < 4.00 | – |
| Cc1nc(C(C)c2ccc(-c3ccccc3)cc2)nc(C(=O)NCC(=O)O)c1O (racemic) | 4.80 | 4.74 | – |
| Cc1nc(Cc2ccc(C(F)(F)F)cc2)nc(C(=O)NCC(=O)O)c1O | 4.54 | 4.96 | – |
| Cc1nc(Cc2cccc(-c3ccccc3)c2)nc(C(=O)NCC(=O)O)c1O | 4.21 | 4.70 | – |
| Cc1nc(Cc2ccc(-c3ccccc3)cc2)nc(C(=O)NCC(=O)O)c1C | – | < 4.00 | – |
| O=C(O)CNC(=O)c1nc(Cl)c2ccccc2c1O | 4.19 | – | ED10 (Cynomolgus monkey [3]): 13 mg/kg; Activity (Cynomolgus monkey [4]): Active |
| CCc1nc(Cc2ccc(-c3ccccc3)cc2)nc(C(=O)NCC(=O)O)c1O | 4.80 | 5.14 | – |
| Cc1nc(Cc2ccc(-c3ccccc3)cc2)nc(C(=O)NCC(=O)O)c1N | – | < 4.00 | – |
| Cc1nc(CCc2ccc(F)cc2)c(O)c(C(=O)NCC(=O)O)n1 | 4.44 | 5.09 | – |
| Cc1nc(C(F)(F)c2ccc(-c3ccccc3)cc2)nc(C(=O)NCC(=O)O)c1O | – | 4.26 | – |
